Measurements as given in a melting point compilation (Tetko et al.; mined from patent text by program, amines drawn as free bases though some values may be those of a salt).

Row | melting point | SMILES
1 | 128 to 131 °C | O=C(C#CCN1C(=O)c2ccccc2C1=O)Nc1nnc(SCc2ccccc2)s1
2 | 97 to 99 °C | CCOC(=O)C1C(=O)NC(=O)CC1c1ccc(F)cc1 (centres undefined)
3 | 201 to 202 °C | CNC(=O)CNC(=O)c1cncc(F)c1
4 | 147 to 149 °C | COC1(OC)C(NC(=O)c2ccccc2O)=CC(=O)C2OC21 (centres undefined)
5 | 70 to 71 °C | O=CN1CCC(c2ccccc2Cc2ccccc2)C1 (centres undefined)
6 | 108 to 109 °C | COC(=O)c1cc(-c2ccc(OC)c(Cl)c2)nn(CC(C)C)c1=O
7 | 215 °C | CCSc1nc2c(cc1F)c(=O)c(C(=O)O)cn2C(C)(C)C
8 | 120 to 121 °C | COC(CN1CCN(c2cccc(-n3cnc4cc(C(C)=O)ccc43)c2)CC1)=NOC(C)C
9 | 259 to 262 °C | O=C(O)c1ccc2c(c1)CCN2Cc1cccc([N+](=O)[O-])c1
10 | 75 to 77 °C | COC(=O)c1cc(Cl)cnc1NCc1ccc(OC)cc1
11 | 88 to 90 °C | Cc1c(C#N)sc2nc(Cc3ccccc3)nc(N3CCOCC3)c12
12 | 164 to 168 °C | O=C(NC(Cc1ccccc1)c1ncc(C(F)(F)F)cc1Cl)c1c(Cl)cccc1Cl (centres undefined)
13 | 233 °C | CC(=O)Nc1ccc(C(=O)O)c2c1OCCO2
14 | 239 to 241 °C | COC(=O)c1cc(-c2c[nH]nc2-c2ccc(F)cc2)ccn1
15 | 82 to 83 °C | OC(c1ccccc1)(c1ccccc1)C(F)(F)C(F)(F)F
16 | 79 to 86 °C | CNC(=S)N1CC(Oc2cccc(C(F)(F)F)c2)C1
17 | 123 to 124 °C | C/C(=C(\C#N)C(N)=S)N1CCCN(c2ccccc2Cl)CC1
18 | 62 to 64 °C | CCCCCCCCCCCCc1nnn(C(C(N)=O)(c2ccccc2)c2ccc(F)cc2F)n1 (centres undefined)
19 | 250 to 253 °C | COc1ccccc1-c1ccc(C(=O)O)cc1

Row | melting point | SMILES
20 | 153 to 155 °C | O=C(O)c1ccc(OCC(O)c2cc3ccccc3o2)cc1 (centres undefined)
21 | 145 to 146 °C | O=C(/C=C/c1c(Cl)cccc1Cl)/C=C/c1c(Cl)cccc1Cl
22 | 167 to 168 °C | O=c1ncc(Cl)cn1CCCl
23 | > 250 °C | COc1ccccc1NC(=O)NC1CC(N)(C(=O)O)C2C(C(=O)O)C12 (centres undefined)
24 | 68 to 70 °C | COC(=O)c1ncoc1CCNC(=O)OCc1ccccc1
25 | 120 °C | O=C1NC(=O)C2(CCCN3CCN(c4ccc(Cl)cc4)CC3)C=CC=CC12 (centres undefined)
26 | 152 to 160 °C | CCCCOC(=O)C(OC(=O)C(C)C)OC(=O)N1CCN(c2cc3c(cc2F)c(=O)c(C(=O)O)cn3CC)CC1 (centres undefined)
27 | 30 to 31 °C | CCOC(=O)c1c(C(F)F)nc(C(F)(F)F)c(C(=O)OCC)c1NC(C)(C)C
28 | 118 °C | CCOC(=O)c1ccc(-c2ccc(OCCCI)c(-c3ccc4c(c3)C(C)(C)CCC4(C)C)c2)cc1
29 | 245 to 247 °C | Cn1cc(S(C)=O)c(=O)c2ccc(Cl)cc21 (centres undefined)
30 | 145 to 146 °C | CCOC(=O)C=C(C)Nc1c[nH]nc1-c1ccc(Cl)cc1
31 | 104 °C | CCN(CC)CC(O)CSCC(=O)O (centres undefined)
32 | 258 to 259 °C | CC(=O)NC(C(=O)Nc1ccc(C(=O)OCc2ccccc2)cc1)c1ccc2c(c1)C(C)(C)CCC2(C)C (centres undefined)
33 | 139 to 140 °C | O=C(O)C(=O)c1ccc(O)c([N+](=O)[O-])c1
34 | 104 to 106 °C | CON(c1ccc([N+](=O)[O-])cc1F)S(=O)(=O)c1ccc(Cl)c(C(F)(F)F)c1
35 | 189 to 192 °C | O=C(O)Cn1c(=O)n2n(c1=O)C(C(=O)O)CCC2 (centres undefined)
36 | 69 to 73 °C | CC(C)(C)C(=O)Nc1ccc(C(F)(F)F)cc1C=O
37 | 270 to 271 °C | O=C(O)C1=Cc2cc(C(=O)c3ccccc3)ccc2OC1C(F)(F)F (centres undefined)
38 | 54 to 56 °C | Oc1ccc(-c2ccc(-c3c(Cc4ccccc4)sc4ccccc34)cc2)cc1Br

The remaining lines, values behind:

Row | SMILES | melting point
39 | c1ccc(CN2CCc3[nH]c4cc(-c5ccccc5)ccc4c3CC2)cc1 | 176 to 177 °C
40 | O=C1CC2(C(=O)N1)c1ccccc1Oc1ccccc12 | 226 to 228 °C
41 | O=C(O)c1cc([N+](=O)[O-])cs1 | 110 to 118 °C
42 | N#CC1CCN(C(c2ccccc2)(c2ccccc2)c2ccccc2)CC1 | 206 °C
43 | CON=Cc1[nH]ccc1S(=O)(=O)NC(C)(C)C | 99 to 101 °C
44 | N#CC1=Cc2cc(Br)ccc2OC1 | 132 to 133 °C
45 | CN(C)c1ccc2nc(-c3c[nH]c4ccccc34)[nH]c(=O)c2c1 | > 300 °C
46 | COCCCn1nnnc1-c1ccc(O)c(Br)c1O | 174 to 175 °C
47 | O=c1nc(Nc2ccc(Cl)cc2)sc2ncccc12 | 278 to 279 °C
48 | CS(=O)(=O)NCCS(=O)(=O)N1CCN(S(=O)(=O)c2ccc(-c3ccc(C(F)(F)F)cc3)s2)[C@@H](C(=O)NO)C1 | 105 to 108 °C
49 | COc1ccc(-n2c(=O)n(O)c(=O)c3cc(F)c(N4CCN(C)CC4)cc32)cc1 | 195 to 196 °C
50 | CCCN(CCC)C1COc2cccc(C(=O)C(C)C)c2C1 (centres undefined) | 60 to 62 °C
51 | COc1ccc(C(=O)c2ccc3nc(Cl)nc(-c4cccc(Cl)c4)c3c2)cc1 | 164 °C
52 | COC(C)=CC(=O)Nc1cccc(N)c1 | 132 °C
53 | O=c1c(-c2ccccc2)c(SCc2ccccc2)oc2cc(O)ccc12 | 215 to 217 °C
54 | CC(C)n1nc(-c2nc(C(N)=O)c(N)nc2Cl)ccc1=O | > 250 °C
55 | Oc1cccc2[nH]c(-c3ccccc3)cc12 | 120 to 123 °C
56 | Cc1ccc(S(=O)(=O)Oc2c(Cl)cc(C3=NNC(=O)CC3)cc2Cl)cc1 | 208 to 209 °C

Row | SMILES | melting point
57 | CCCCNC(=S)Nc1nc2ccc(OC(F)(F)F)cc2s1 | 211 °C
58 | CCOC(=O)CCCSc1nccc(NC(=S)NCC(F)(F)F)n1 | 104 to 106 °C
59 | CC(C)Cn1c(=O)n(C)c(=O)c2c(-c3cccc(-c4nnn[nH]4)c3)n(Cc3cccc4ccccc34)nc21 | 251 to 254 °C
60 | CCN(CC)C(=O)CCc1nc(-c2ccccn2)nc2ccccc12 | 130 °C
61 | CC1(C)OC(C(F)(F)F)Nc2ccc(-c3cccc(Cl)c3)cc21 (centres undefined) | 108 to 109 °C
62 | COc1ccc2nccc(NC(=O)C3CCN(CCc4cnc5ccccc5n4)CC3)c2n1 | 170 °C
63 | O=c1[nH]c2ccc(C#CCCN3CCC(Cc4ccccc4)CC3)cc2[nH]1 | 221 to 223 °C
64 | N#Cc1ccc(Oc2ccccc2)cn1 | 84 to 85 °C
65 | Nc1nc2c(s1)CCN(CC=Cc1cccc(C(F)(F)F)c1)CC2 | 102 to 105 °C
66 | CCCCCCC[C@H](CC(=O)OC(C)(C)C)C(=O)N1C(=O)OC[C@@H]1C(C)C | 49 to 51 °C
67 | O=C(Nc1ccccn1)Nc1cccc2c1C1CC3(CCN1C2=O)OCCO3 (centres undefined) | 178 to 180 °C
68 | CC(NSc1nc2ccccc2s1)c1ccccc1 (centres undefined) | 50 to 53 °C
69 | COc1ccc2c(c1)CCN1C[C@H]3CCCN(S(C)(=O)=O)[C@H]3C[C@@H]21 | 165 to 166 °C
70 | CC(C)C1(C)N=C2c3nc4occc4cc3C(=O)N2C1=O (centres undefined) | 193 to 205 °C
71 | O=C(OCC1CCCCC1)c1ncn2c1[C@@H]1CCCN1C(=O)c1c(Cl)cccc1-2 | 123 to 124 °C
72 | CC(=O)Oc1c(C)c2c(c3ccccc13)OCC2c1ccc(C(C)C)cc1 (centres undefined) | 109 to 110 °C
73 | Cc1cc(C(O)(C(F)(F)F)C(F)(F)F)cc(C)c1NCCN | 158 to 161 °C
74 | CN(C)C1(c2ccccc2)CCC(CNC(=O)N2CCC(c3c[nH]c4ccccc34)CC2)CC1 (centres undefined) | 104 to 107 °C
